The record followed here is patent US9365576B2, “Pyrrolopyrrolidinone compounds” (Novartis AG, priority 2012, dated 2016).

Molecules are shown by their SMILES.

human MDM2 protein (amino acids 2-188), sequence (Q00987 2-188): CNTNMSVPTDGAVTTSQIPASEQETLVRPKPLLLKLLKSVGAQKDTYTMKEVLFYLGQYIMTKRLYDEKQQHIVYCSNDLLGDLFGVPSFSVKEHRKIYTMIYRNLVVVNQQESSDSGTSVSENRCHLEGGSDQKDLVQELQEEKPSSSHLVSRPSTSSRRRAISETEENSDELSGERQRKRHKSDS

In the assay the target is human MDM2 protein (amino acids 2-188) (Homo sapiens (Human), UniProt Q00987). Kind of assay: TR-FRET assay, p53-MDM2 Assay 2 (modified). The settings on record: TR-FRET; 0.1 nM MDM2, 0.1 nM Europium labeled streptavidin, Tecan genios Pro reader; read-out: IC50 p53-MDM2 Assay 2. The assay is classed as binding. An outline of the steps:
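Biotinylated human MDM2 (aa 2–188, 1.25 nM) was preincubated 15 min at room temperature with 0.625 nM Eu-streptavidin, then 10 nM Cy5-p53 peptide (aa 18–26) added for 15 min. TR-FRET ratio 665/620 nm (excitation 340 nm) was read; IC50 came from curve fitting.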
For the molecule `COc1ccc(-c2cc3c(n2C(C)C)C(c2ccc(Cl)cc2)N(c2cc(Cl)ccc2C)C3=O)c(OC)c1` (stereo not shown) [Example 38, 5-(5-Chloro-2-methyl-phenyl)-6-(4-chloro-phenyl)-2-(2,4-dimethoxy-phenyl)-1-isopropyl-5,6-dihydro-1H-pyrrolo[3,4-b]pyrrol-4-one], the IC50 was determined as 0.444 nM. The figure for `CCn1c(-c2cnc(OC)nc2OC)cc2c1C(c1ccc(Cl)cc1)N(c1cc(Cl)ccc1C)C2=O` (stereo not shown) [Example 45, 5-(5-Chloro-2-methyl-phenyl)-6-(4-chloro-phenyl)-2-(2,4-dimethoxy-pyrimidin-5-yl)-1-ethyl-5,6-dihydro-1H-pyrrolo[3,4-b]pyrrol-4-one] is 87.6 nM; for `COc1ccc(C(=O)O)cc1-c1cc2c(n1C(C)C)[C@H](c1ccc(Cl)cc1)N(c1cc(Cl)ccc1C)C2=O` [Example 89, 3-[(S)-5-(5-Chloro-2-methyl-phenyl)-6-(4-chloro-phenyl)-1-isopropyl-4-oxo-1,4,5,6-tetrahydro-pyrrolo[3,4-b]pyrrol-2-yl]-4-methoxy-benzoic acid] it is 0.08 nM; for `COc1nc(N(C)C)ncc1-c1cc2c(n1C(C)C)[C@@H](c1ccc(C#N)cc1)N(C1CCOCC1)C2=O` [Example 191, 4-[(R)-2-(2-Dimethylamino-4-methoxy-pyrimidin-5-yl)-1-isopropyl-4-oxo-5-(tetrahydro-pyran-4-yl)-1,4,5,6-tetrahydro-pyrrolo[3,4-b]pyrrol-6-yl]-benzonitrile] it is 280 nM. `COc1ncc(-c2cc3c(n2C(C)C)C(c2ccc(Cl)cc2)N(c2cc(Cl)c[nH]c2=O)C3=O)c(OC)n1` (stereo not shown) [Example 204, 5-(5-Chloro-2-oxo-1,2-dihydro-pyridin-3-yl)-6-(4-chloro-phenyl)-2-(2,4-dimethoxy-pyrimidin-5-yl)-1-isopropyl-5,6-dihydro-1H-pyrrolo[3,4-b]pyrrol-4-one]: the IC50 stood at 0.195 nM. The result for `COc1ncc(-c2cc3c(n2C(C)C)C(c2ccc(Cl)cc2)N(c2c[nH]c(=O)c(Cl)c2)C3=O)c(OC)n1` (stereo not shown) [Example 139, 5-(5-Chloro-6-oxo-1,6-dihydro-pyridin-3-yl)-6-(4-chloro-phenyl)-2-(2,4-dimethoxy-pyrimidin-5-yl)-1-isopropyl-5,6-dihydro-1H-pyrrolo[3,4-b]pyrrol-4-one] reads 0.266 nM; that for `COc1nc(N(C)C)ncc1-c1cc2c(n1C(C)C)C(c1ccc(Cl)cc1)N(c1ccc(F)c(Cl)c1)C2=O` (stereo not shown) [Example 58, 5-(3-Chloro-4-fluoro-phenyl)-6-(4-chloro-phenyl)-2-(2-dimethylamino-4-methoxy-pyrimidin-5-yl)-1-isopropyl-5,6-dihydro-1H-pyrrolo[3,4-b]pyrrol-4-one], 0.458 nM. For the molecule `COc1ccc(C(=O)O)cc1-c1cc2c(n1C(C)C)[C@@H](c1ccc(Cl)cc1)N(c1cc(Cl)ccc1C)C2=O` [Example 90, 3-[(R)-5-(5-Chloro-2-methyl-phenyl)-6-(4-chloro-phenyl)-1-isopropyl-4-oxo-1,4,5,6-tetrahydro-pyrrolo[3,4-b]pyrrol-2-yl]-4-methoxy-benzoic acid], the concentration for half-maximal inhibition (IC50) was 6.21 nM.

Turning to `COc1nc(N(C)C)ncc1-c1cc2c(n1C(C)C)C(c1ccc(C#N)cc1)N(c1cc(Cl)ccc1C)C2=O` (stereo not shown) [Example 95, 4-[5-(5-Chloro-2-methyl-phenyl)-2-(2-dimethylamino-4-methoxy-pyrimidin-5-yl)-1-isopropyl-4-oxo-1,4,5,6-tetrahydro-pyrrolo[3,4-b]pyrrol-6-yl]-benzonitrile], the half-maximal inhibitory concentration (IC50) came to 0.194 nM.

With `COc1ccccc1-c1cc2c(n1C(C)C)C(c1ccc(Cl)cc1C)N(C1CCOCC1)C2=O` (stereo not shown) [Example 104, 6-(4-Chloro-2-methyl-phenyl)-1-isopropyl-2-(2-methoxy-phenyl)-5-(tetrahydro-pyran-4-yl)-5,6-dihydro-1H-pyrrolo[3,4-b]pyrrol-4-one], the 50% inhibitory concentration (IC50) was found to be 15.3 nM. The figure for `COc1cn(C)c(=O)cc1-c1cc2c(n1C(C)C)C(c1ccc(Cl)cc1)N(c1cc(C)nn1C)C2=O` (stereo not shown) [Example 178, 6-(4-Chloro-phenyl)-5-(2,5-dimethyl-2H-pyrazol-3-yl)-1-isopropyl-2-(5-methoxy-1-methyl-2-oxo-1,2-dihydro-pyridin-4-yl)-5,6-dihydro-1H-pyrrolo[3,4-b]pyrrol-4-one] is 1.07 nM; for `COc1nc(N(C)C)ncc1-c1cc2c(n1C(C)C)C(c1ccc(Cl)cc1)N(c1cc(C)nn1C)C2=O` (stereo not shown) [Example 177, 6-(4-Chloro-phenyl)-2-(2-dimethylamino-4-methoxy-pyrimidin-5-yl)-5-(2,5-dimethyl-2H-pyrazol-3-yl)-1-isopropyl-5,6-dihydro-1H-pyrrolo[3,4-b]pyrrol-4-one] it is 0.514 nM; for `COc1cn(C)c(=O)cc1-c1cc2c(n1C(C)C)C(c1ccc(Cl)cc1)N(c1cc(Cl)ccc1C)C2=O` (stereo not shown) [Example 149, 5-(5-Chloro-2-methyl-phenyl)-6-(4-chloro-phenyl)-1-isopropyl-2-(5-methoxy-1-methyl-2-oxo-1,2-dihydro-pyridin-4-yl)-5,6-dihydro-1H-pyrrolo[3,4-b]pyrrol-4-one] it is 0.11 nM. Turning to `COc1nc(N)ncc1-c1cc2c(n1C(C)C)C(c1ccc(Cl)cc1)N(c1c(F)c(C)nn1C)C2=O` (stereo not shown) [Example 210, 2-(2-Amino-4-methoxy-pyrimidin-5-yl)-6-(4-chloro-phenyl)-5-(4-fluoro-2,5-dimethyl-2H-pyrazol-3-yl)-1-isopropyl-5,6-dihydro-1H-pyrrolo[3,4-b]pyrrol-4-one], the IC50 came to 3.9 nM.

For `CNC(=O)c1ccc(OC)c(-c2cc3c(n2C(C)C)C(c2ccc(Cl)cc2)N(c2cc(Cl)c(=O)n(C)c2)C3=O)c1` (stereo not shown) [Example 49, 3-[5-(5-Chloro-1-methyl-6-oxo-1,6-dihydro-pyridin-3-yl)-6-(4-chloro-phenyl)-1-isopropyl-4-oxo-1,4,5,6-tetrahydro-pyrrolo[3,4-b]pyrrol-2-yl]-4-methoxy-N-methyl-benzamide], the IC50 was 0.137 nM. The figure for `COc1ncc(-c2cc3c(n2C(C)C)[C@@](C)(c2ccc(Cl)cc2)N(c2cc(Cl)c(=O)n(C)c2)C3=O)c(OC)n1` [Example 163, (R)-5-(5-Chloro-1-methyl-6-oxo-1,6-dihydro-pyridin-3-yl)-6-(4-chloro-phenyl)-2-(2,4-dimethoxy-pyrimidin-5-yl)-1-isopropyl-6-methyl-5,6-dihydro-1H-pyrrolo[3,4-b]pyrrol-4-one] is 42.7 nM; for `COc1nc(N(C)C)ncc1-c1cc2c(n1C(C)C)[C@H](c1ccc(Cl)c(F)c1)N(c1cc(Cl)c[nH]c1=O)C2=O` [Example 227, (S)-6-(4-Chloro-3-fluoro-phenyl)-5-(5-chloro-2-oxo-1,2-dihydro-pyridin-3-yl)-2-(2-dimethylamino-4-methoxy-pyrimidin-5-yl)-1-isopropyl-5,6-dihydro-1H-pyrrolo[3,4-b]pyrrol-4-one] it is 0.071 nM; for `COc1nc(N(C)C)ncc1-c1cc2c(n1C(C)C)[C@@H](c1ccc(C#N)cc1)N(c1cc(Cl)c[nH]c1=O)C2=O` [Example 168, 4-[(R)-5-(5-Chloro-2-oxo-1,2-dihydro-pyridin-3-yl)-2-(2-dimethylamino-4-methoxy-pyrimidin-5-yl)-1-isopropyl-4-oxo-1,4,5,6-tetrahydro-pyrrolo[3,4-b]pyrrol-6-yl]-benzonitrile] it is 107 nM. In the case of `COc1ncc(-c2cc3c(n2C(C)C)[C@](C)(c2ccc(Cl)cc2)N(c2cc(Cl)c(=O)n(C)c2)C3=O)c(OC)n1` [Example 162, (S)-5-(5-Chloro-1-methyl-6-oxo-1,6-dihydro-pyridin-3-yl)-6-(4-chloro-phenyl)-2-(2,4-dimethoxy-pyrimidin-5-yl)-1-isopropyl-6-methyl-5,6-dihydro-1H-pyrrolo[3,4-b]pyrrol-4-one], the half-maximal inhibitory concentration (IC50) worked out at 49 nM. Consider `COc1ncc(-c2cc3c(n2C(C)C)C(c2ccc(Cl)cc2)N(c2cc(C)nn2C)C3=O)c(OC)n1` (stereo not shown) [Example 176, 6-(4-Chloro-phenyl)-2-(2,4-dimethoxy-pyrimidin-5-yl)-5-(2,5-dimethyl-2H-pyrazol-3-yl)-1-isopropyl-5,6-dihydro-1H-pyrrolo[3,4-b]pyrrol-4-one], for which the IC50 amounted to 0.87 nM. The result for `COc1nc(N(C)C)ncc1-c1cc2c(n1C(C)C)C(c1ccc(C#N)cc1)N(c1c(F)c(C)nn1C)C2=O` (stereo not shown) [Example 231, 4-(2-(2-(Dimethylamino)-4-methoxypyrimidin-5-yl)-5-(4-fluoro-1,3-dimethyl-1H-pyrazol-5-yl)-1-isopropyl-4-oxo-1,4,5,6-tetrahydropyrrolo[3,4-b]ppyrrol-6-yl)benzonitrile] reads 0.224 nM; that for `COc1ccc(C(=O)O)cc1-c1cc2c(n1C(C)C)C(c1ccc(Cl)cc1)N(c1ccc(F)c(Cl)c1)C2=O` (stereo not shown) [Example 56, 3-[5-(3-Chloro-4-fluoro-phenyl)-6-(4-chloro-phenyl)-1-isopropyl-4-oxo-1,4,5,6-tetrahydro-pyrrolo[3,4-b]pyrrol-2-yl]-4-methoxy-benzoic acid], 0.351 nM. The result for `COc1ncc(-c2cc3c(n2C(C)C)C(c2ccc(C#N)cc2)N(c2cccc(Cl)c2F)C3=O)c(OC)n1` (stereo not shown) [Example 42, 4-[5-(3-Chloro-2-fluoro-phenyl)-2-(2,4-dimethoxy-pyrimidin-5-yl)-1-isopropyl-4-oxo-1,4,5,6-tetrahydro-pyrrolo[3,4-b]pyrrol-6-yl]-benzonitrile] reads 0.246 nM; that for `COc1ncc(-c2cc3c(n2C(C)C)[C@H](c2ccc(Cl)cc2)N(c2cc(Cl)ccc2C)C3=O)c(OC)n1` [Example 23, (S)-5-(5-Chloro-2-methyl-phenyl)-6-(4-chloro-phenyl)-2-(2,4-dimethoxy-pyrimidin-5-yl)-1-isopropyl-5,6-dihydro-1H-pyrrolo[3,4-b]pyrrol-4-one], 0.065 nM; that for `COc1nc(N(C)C)ncc1-c1cc2c(n1C(C)C)C(c1ccc(Cl)cc1)N([C@H]1CC[C@H](O)CC1)C2=O` (stereo partly drawn) [Example 69, 6-(4-Chloro-phenyl)-2-(2-dimethylamino-4-methoxy-pyrimidin-5-yl)-5-(trans-4-hydroxy-cyclohexyl)-1-isopropyl-5,6-dihydro-1H-pyrrolo[3,4-b]pyrrol-4-one], 0.777 nM.

By IC50 is commonly meant the concentration at which inhibition is half-maximal.
